Test results published in US9878054B2, “Polypeptide and lipophilic moiety conjugate compositions, formulations, and uses related thereto” (Tufts Medical Center, Inc., priority 2012, dated 2018).
Where a SMILES comes first, the peptide text is derived from it. The star is where a group is joined. Palmitoyl = CCCCCCCCCCCCCCCC(=O)*

Experiments:
[1] = system: human platelets (thrombin); test: Thrombin-induced aggregation of human platelets; format: cell-based; conditions: 3 μM compound
Method: A, Depiction of the mechanism of action of the cell-penetrating PZ-128 pepducin compound targeting the third intracellular loop (red) of PAR1. B, The NMR structure of PZ-128 was determined by simulated annealing methods using 210 distance restraints and included restraints to the proximal 3 hydrocarbons of the lipid. […] D, PZ-128 inhibits PAR1-dependent platelet aggregation. Gel filtered human platelets were treated with various concentrations of PZ-128 and then challenged with the PAR1 agonist SFLLRN (2.5 μM), 20 μM ADP, 200 μM AYPGKF or 1 mg/ml Ristocetin. E, Human platelets were treated with 3 μM PZ-128, 3 μM RWJ-56110, or 5% dextrose vehicle before the addition of various concentrations of thrombin (n=3-5).
PZ-128 also markedly right-shifted thrombin-induced aggregation by 5-fold. By comparison, the small molecule RWJ-56110 which antagonizes PAR1 at the extracellular ligand-binding site gave a 2-fold right shift in the thrombin activation curve of human platelets.
Whole blood from healthy donors was collected into a 30 ml syringe containing sodium citrate (0.4% vol/vol final). Platelets were isolated from platelet rich plasma (PRP) using Sepharose 2B columns in modified PIPES buffer.

[2] = system: baboon arterial thrombosis (platelet deposition); test: Baboon arterial-venous shunt Dacron graft thrombosis; format: in vivo, baboon (Papio anubis)
Method: 10-14 kg baboons were administered 3 mg/kg or 6 mg/kg PZ-128 by a 45 min iv infusion versus 5% dextrose vehicle (n=2-6). A, Net platelet accumulation was measured during the first 60 minutes of thrombus growth on a femoral arterio-venous Dacron graft (4 mm ID) inserted between silicone rubber tubing segments comprising a high-flow shunt. Blood flow was maintained at 100 ml/min by distal clamping the shunt. Autologous platelets were radiolabeled with indium-111 (1 mCi), and reinjected into the animals before thrombosis experiments. B, Deposition of platelets (mean±SD) was quantified in the head plus tail regions of the thrombus by 111Indium-labeled platelet imaging with 5-minute data acquisition periods starting at 60 min after initiation of the infusion. Statistical significance was determined using a variance stabilizing LN (natural log) transformation and a repeated measures mixed effects model with an autoregressive covariance structure. Subjects (individual baboons) were included in the model as a random effect. P=0.606 for 3 mg/kg vs vehicle and P=0.0028 for 6 mg/kg vs vehicle.
Baboon arterial thrombosis experiments were conducted to determine whether the PZ-128 micelles had the potential to inhibit arterial thrombosis in primates. An arterial-venous shunt equipped with a Dacron vascular graft with an internal lumen diameter of 4 mm at a high flow rate of 100 ml/min was used. Thrombogenesis was assessed by measuring platelet content of the head and tail regions of the developing thrombus (FIG. 4A) and quantified by ^111Indium-labeled platelet imaging over 60 min. PZ-128 micelles at a dose of 1 mg/kg had no effect on platelet-thrombus deposition in the baboon.
Non-terminal thrombosis and platelet aggregation studies were performed on 12 healthy male baboons (Papio anubis) weighing 9-12 kg at the Oregon National Primate Research Center (ONPRC). […] Platelet counts and hematocrit were measured immediately. […]

[3] = PT, aPTT, bleeding and plasma levels in cynomolgus monkeys after daily iv infusions; format: in vivo; conditions: cynomolgus monkey
Method: PZ-128 micelles were also administered daily for 4 days to adult male and female cynomolgus monkeys with 1 h iv infusions of 3 mg/kg, 10 mg/kg and 30 mg/kg PZ-128. Coagulation parameters prothrombin time (PT) and activated partial thromboplastin time (aPTT) were unaffected in all monkeys at 3-30 mg/kg PZ-128 at either day 1 and day 5 as compared to baseline or vehicle-treated animals (Table 2).
PZ-128 micelles (0, 3, 10 or 30 mg/kg) were administered intravenously to 2.5-4.5 kg male and female cynomolgus monkeys by infusion over 1 h at MPI Laboratories (Mattawan, Mich.). Peripheral venous blood was collected from cynomolgus monkeys into K3EDTA anticoagulant at baseline (Day −8) and at two time points (Day 1 and Day 5) after daily 1-h intravenous PZ-128 micelle infusions on days 1-4. PT and aPTT were analyzed immediately on a MLA-800 coagulation analyzer.

[4] = Solubility of lyophilized PZ-128 after reconstitution (visual inspection); format: physicochemical
Method: Column recovered fractions containing PZ-128 ammonium salts were lyophilized by using the following procedure: 5 mL of elute from reverse phase column cartridge was place into a 15-mL vial; the sample frozen in dry ice-isopropanol bath for 5 minutes with swirling until completely frozen, the temperature should be about −35 to −45° C. and the vacuum pressure should be about 60-100×10^−3 mBar; frozen samples/vials are places in a 0.5-1 L lyophilization glass container; open the chamber to the vacuum pump where the vacuum pressure should rise and then come back to 100-200×10^−3 M Bar until drying is complete; and the sample is stored at −20° C. The product of the first PZ-128 lyophilization was dissolved in pure water and lyophilized a second time.
The different excipients listed in Table 1 were added to 10×500 μL aliquots of the fully soluble 1 mg/mL PZ-128 solution (product of the first lyophilization), mixed, froze, and lyophilization overnight. After lyophilization, the appearance of the dried lyophilizate was examined and the solubility determined after reconstitution with 100 μL water to 5 mg/mL PZ-128 salt product.
The appearances of each of the samples after a second lyophilization from water with the different excipients are listed in Table 1. […]

[5] = 3-30 mg/kg, 1 h iv infusion daily for 4 days, day 1 and day 5

CCCCCCCCCCCCCCCC(=O)N[C@@H](CCCCN)C(=O)N[C@@H](CCCCN)C(=O)N[C@@H](CO)C(=O)N[C@@H](CCCNC(=N)N)C(=O)N[C@@H](C)C(=O)N[C@@H](CC(C)C)C(=O)N[C@@H](Cc1ccccc1)C(N)=O [PZ-128, palmitate-KKSRALF-NH2] (Palmitoyl-KKSRALF-NH2)
Right shift of thrombin-induced aggregation curve [1]: 5 fold
Effect on platelet-thrombus deposition ([2]; 1 mg/kg): no effect
Effect against platelet arterial thrombus formation vs vehicle ([2]; 3 mg/kg iv infusion, P=0.606): not significant
Effect against platelet arterial thrombus formation vs vehicle ([2]; 6 mg/kg iv infusion, P=0.0028): significant protective effect
Cmax ([3]; both sexes, plasma, up to 30 mg/kg iv infusion): > 200 µM
Spontaneous, venous access, or retinal bleeding ([3]; 3-30 mg/kg daily iv): No spontaneous, venous access, or retinal bleeding was observed
Activated partial thromboplastin time (aPTT) [3, 5]: unaffected
Prothrombin time (PT) [3, 5]: unaffected
Solubility of product of second lyophilization from pure water ([4]; 5 mg/mL, tested formulations including 100% water): did not solubilize
Solubility of micelles after filtration and second lyophilization with ammonium acetate ([4]; 100% water and 5% dextrose/water at 5 mg/mL): readily soluble
